Assay results taken from ChEMBL document CHEMBL1201862, “PubChem BioAssay data set” (2004).
Active and inactive are the calls of the source.

Legend:
[1] = target: T1, E3 ubiquitin-protein ligase XIAP (Homo sapiens, UniProt P98170); test: Counter Screen using XIAP-Bir3 for Chemical Antagonists of Bir1/2 domains of IAP-family anti-apoptotic proteins. [Related pubchem assays (depositor defined):AID1018, AID1449, AID1514, AID1638, AID1749, AID1750, AID488957, AID488963]
[2] = target: T1, E3 ubiquitin-protein ligase XIAP; test: XIAP antagonists, biochemical, IAP family, fluorescence polarization (AID 1018); type: functional
[3] = inhibitors of Vif binding to APOBEC3G peptide, primary screen, biochemical, TR-FRET, GST-Vif 1-94, biotin-A3G peptide, dose response retest (AID 1117319); type: functional;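 also: TR-FRET signal of purified GST-Vif binding a biotinylated A3G peptide; inhibitors lower the FRET signal by blocking Vif and A3G binding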
cells [4] = test: cells
[5] = HEp-2 cell cytotoxicity, dose response, cytotoxicity control for RSV inhibitor project, HTS (AID 2410); type: functional; details: human respiratory syncytial virus
[6] = target: T2, Short transient receptor potential channel 4 (Mus musculus, UniProt Q9QUQ5); test: mouse TRPC4 channel activators, dose response, cell-based, HEK293 TRPC4/mu-opioid, Fluo-4 calcium (AID 434937); type: functional
T2 sequence (Q9QUQ5 whole entry): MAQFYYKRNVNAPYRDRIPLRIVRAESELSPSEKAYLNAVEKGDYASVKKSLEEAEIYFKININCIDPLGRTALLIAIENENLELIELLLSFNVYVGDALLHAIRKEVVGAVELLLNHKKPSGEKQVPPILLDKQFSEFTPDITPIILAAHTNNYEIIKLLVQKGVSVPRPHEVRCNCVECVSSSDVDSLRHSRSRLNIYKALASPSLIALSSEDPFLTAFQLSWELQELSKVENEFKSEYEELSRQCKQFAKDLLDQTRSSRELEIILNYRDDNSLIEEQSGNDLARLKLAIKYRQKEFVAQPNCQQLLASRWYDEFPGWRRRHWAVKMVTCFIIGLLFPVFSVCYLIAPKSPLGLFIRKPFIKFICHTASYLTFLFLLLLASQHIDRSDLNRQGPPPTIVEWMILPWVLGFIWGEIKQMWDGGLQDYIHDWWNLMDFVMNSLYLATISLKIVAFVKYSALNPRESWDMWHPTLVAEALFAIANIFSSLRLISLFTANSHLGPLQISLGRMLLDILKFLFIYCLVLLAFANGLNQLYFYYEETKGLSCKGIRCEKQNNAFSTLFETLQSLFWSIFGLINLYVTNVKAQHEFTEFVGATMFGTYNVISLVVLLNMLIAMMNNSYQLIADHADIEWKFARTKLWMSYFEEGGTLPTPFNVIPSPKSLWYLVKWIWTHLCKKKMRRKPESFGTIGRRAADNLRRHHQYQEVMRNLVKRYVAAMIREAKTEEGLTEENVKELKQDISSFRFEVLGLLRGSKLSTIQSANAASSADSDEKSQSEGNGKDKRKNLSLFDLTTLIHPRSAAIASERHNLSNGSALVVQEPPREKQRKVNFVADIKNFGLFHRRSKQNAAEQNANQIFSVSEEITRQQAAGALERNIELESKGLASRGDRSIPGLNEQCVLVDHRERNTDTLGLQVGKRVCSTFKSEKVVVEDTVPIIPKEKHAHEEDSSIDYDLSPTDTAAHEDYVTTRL

H4 = test: Luminescence Cell-Based Dose Response HTS to Identify Activators of 5'UTR Stem-Loop Driven Prion Protein mRNA Translation in H4 Neuroglioblastoma Cells. [Related pubchem assays: 1829 (Project Summary), 1814 (Primary HTS)]; type: functional; details: Homo sapiens
[7] = Luminescence Cell-Based Dose Response HTS to Identify Activators of Luciferase Translation or Activity in H4 […] Cells. [Related pubchem assays: 1829 (Project Summary), 1814 (Primary HTS)]; type: functional
[8] = Luminescence Cell-Based Dose Confirmation HTS to Identify Activators of 5'UTR Stem-Loop Driven Alpha-Synuclein mRNA Translation in H4 Neuroglioblastoma Cells. [Related pubchem assays: 1829 (Project Summary), 1814 (Primary HTS)]; type: functional
[9] = target: Voltage-dependent T-type calcium channel subunit alpha-1H (Homo sapiens, UniProt O95180); type: functional;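 also: channel activity triggered by adding a high calcium stimulation buffer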
[10] = HepG2 cell cytotoxicity, dose response, cytotoxicity control for non-replicating M. tuberculosis project (AID 489018); type: functional; details: Mycobacterium tuberculosis
[11] = THP-1 cell cytotoxicity, dose response, cytotoxicity control for non-replicating M. tuberculosis project (AID 489025); type: functional
[12] = microbe, parasite or virus in culture; type: functional; details: Mycobacterium tuberculosis
[13] = Vero E6 cell cytotoxicity, dose response, cytotoxicity control for non-replicating M. tuberculosis project, secondary assay (AID 492998); type: functional, VeroE6; details: Vero C1008
Vero [14] = test: cells; type: functional; details: Chlorocebus sabaeus
cells [15] = type: functional
[16] = target: Eukaryotic translation initiation factor 4E (Mus musculus, UniProt P63073); test: eIF4E–eIF4G protein interaction inhibitors, dose response, biochemical, TR-FRET (AID 855); type: functional;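 also: potency for disrupting eIF4E binding to eIF4GI seen as loss of FRET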
Vero [17] = test: cells; type: functional, cell-based; details: Chlorocebus sabaeus
[18] = P. falciparum late gametocyte killing, dose response, luminescence (AID 1117278); type: functional, cell-based;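 also: gametocytes exposed to compound for 24 hours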
[19] = Jurkat T cell cytotoxicity, dose response, cytotoxicity control for P. falciparum gametocyte viability project, luminescence (AID 1117277); type: functional, cell-based;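 also: potency reflects loss of cellular ATP meaning fewer viable cells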
Streptococcus = test: Group A Streptococcus viability loss, dose response, counter-screen for streptokinase expression inhibitor project, luminescence, BacTiterGlo (AID 1915); type: functional, organism-based;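 also: potency for reduction of bacterial viability or growth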
[20] = test system: Streptococcus sp. 'group A'; test: growth inhibition of control SK(-) GAS strain, dose response, counter-screen for streptokinase expression inhibitor project, luminescence, kanamycin, BacTiterGlo, confirmation (AID 1900); type: functional, organism-based
Streptokinase A = target: T3, Streptokinase A (Streptococcus pyogenes serotype M1, UniProt P10520); test: S. pyogenes streptokinase expression inhibitors, potency, dose response, plasminogen activation absorbance, OD405 (AID 1914); type: functional, Streptococcus pyogenes M1 GAS;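 also: secreted streptokinase activity via plasminogen activation per viability signal from cell pellet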
T3 sequence (P10520 whole entry): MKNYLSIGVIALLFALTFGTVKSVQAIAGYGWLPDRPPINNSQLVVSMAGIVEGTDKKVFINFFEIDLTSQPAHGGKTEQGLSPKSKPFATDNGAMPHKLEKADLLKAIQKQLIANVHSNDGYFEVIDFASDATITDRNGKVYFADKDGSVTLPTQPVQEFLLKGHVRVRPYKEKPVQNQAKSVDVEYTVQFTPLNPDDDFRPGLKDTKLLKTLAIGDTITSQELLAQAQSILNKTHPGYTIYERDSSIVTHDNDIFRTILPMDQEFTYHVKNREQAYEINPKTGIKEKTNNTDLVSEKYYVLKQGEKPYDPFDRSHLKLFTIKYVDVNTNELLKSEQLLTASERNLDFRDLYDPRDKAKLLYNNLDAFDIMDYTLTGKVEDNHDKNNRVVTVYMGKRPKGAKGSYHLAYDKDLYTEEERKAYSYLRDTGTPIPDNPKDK

Estrogen receptor beta [21] = target: T4, Estrogen receptor beta (Homo sapiens, UniProt Q92731);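 also: recombinant ER-beta bound to coactivator SRC1 peptide in presence of estradiol agonist; inhibitors block coactivator peptide binding and lower the FRET signal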
Estrogen receptor beta [22] = target: T4, Estrogen receptor beta; test: ERβ–SRC-3 coactivator interaction inhibitors, confirmation, orthogonal assay, biochemical, ELISA, streptavidin-HRP readout (AID 1060)
Bcl-2-related protein A1 = target: T5, Bcl-2-related protein A1 (Mus musculus, UniProt Q07440); type: functional;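 also: confirmatory dose–response counterscreen on Bfl-1, used to check hits from a UBC13 polyubiquitin inhibitor campaign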
T5 sequence (Q07440 whole entry): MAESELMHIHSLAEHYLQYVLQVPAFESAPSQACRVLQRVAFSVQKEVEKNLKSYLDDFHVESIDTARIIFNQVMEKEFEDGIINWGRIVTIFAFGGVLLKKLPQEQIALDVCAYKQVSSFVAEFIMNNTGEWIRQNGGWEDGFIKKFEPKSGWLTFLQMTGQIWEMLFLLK

[23] = target: T6, Ubiquitin-conjugating enzyme E2 N (Homo sapiens, UniProt P61088); type: functional;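 also: Dose-response confirmation in a TR-FRET assay detecting UBC13-driven polyubiquitin chain formation, inhibition measured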
T6 sequence (P61088 whole entry): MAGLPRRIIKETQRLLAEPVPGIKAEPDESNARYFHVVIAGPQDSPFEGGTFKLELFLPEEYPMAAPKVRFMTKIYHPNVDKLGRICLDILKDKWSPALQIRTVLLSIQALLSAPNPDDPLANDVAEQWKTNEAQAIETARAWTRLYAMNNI

T1 sequence (P98170 whole entry): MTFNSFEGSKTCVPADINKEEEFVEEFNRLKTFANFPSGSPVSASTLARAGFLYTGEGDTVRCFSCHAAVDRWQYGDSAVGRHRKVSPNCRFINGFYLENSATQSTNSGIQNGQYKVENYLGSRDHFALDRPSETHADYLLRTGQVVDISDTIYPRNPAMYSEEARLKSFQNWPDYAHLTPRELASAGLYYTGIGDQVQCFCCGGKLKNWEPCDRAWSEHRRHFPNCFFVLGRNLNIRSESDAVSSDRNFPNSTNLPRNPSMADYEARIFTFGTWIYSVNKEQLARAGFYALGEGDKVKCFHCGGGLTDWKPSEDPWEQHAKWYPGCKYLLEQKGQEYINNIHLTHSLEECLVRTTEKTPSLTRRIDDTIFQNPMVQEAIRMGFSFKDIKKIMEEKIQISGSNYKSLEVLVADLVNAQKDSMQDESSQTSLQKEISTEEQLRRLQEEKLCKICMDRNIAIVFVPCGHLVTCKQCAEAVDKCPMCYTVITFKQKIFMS
Voltage-dependent T-type calcium channel subunit alpha-1H, sequence (O95180 whole entry): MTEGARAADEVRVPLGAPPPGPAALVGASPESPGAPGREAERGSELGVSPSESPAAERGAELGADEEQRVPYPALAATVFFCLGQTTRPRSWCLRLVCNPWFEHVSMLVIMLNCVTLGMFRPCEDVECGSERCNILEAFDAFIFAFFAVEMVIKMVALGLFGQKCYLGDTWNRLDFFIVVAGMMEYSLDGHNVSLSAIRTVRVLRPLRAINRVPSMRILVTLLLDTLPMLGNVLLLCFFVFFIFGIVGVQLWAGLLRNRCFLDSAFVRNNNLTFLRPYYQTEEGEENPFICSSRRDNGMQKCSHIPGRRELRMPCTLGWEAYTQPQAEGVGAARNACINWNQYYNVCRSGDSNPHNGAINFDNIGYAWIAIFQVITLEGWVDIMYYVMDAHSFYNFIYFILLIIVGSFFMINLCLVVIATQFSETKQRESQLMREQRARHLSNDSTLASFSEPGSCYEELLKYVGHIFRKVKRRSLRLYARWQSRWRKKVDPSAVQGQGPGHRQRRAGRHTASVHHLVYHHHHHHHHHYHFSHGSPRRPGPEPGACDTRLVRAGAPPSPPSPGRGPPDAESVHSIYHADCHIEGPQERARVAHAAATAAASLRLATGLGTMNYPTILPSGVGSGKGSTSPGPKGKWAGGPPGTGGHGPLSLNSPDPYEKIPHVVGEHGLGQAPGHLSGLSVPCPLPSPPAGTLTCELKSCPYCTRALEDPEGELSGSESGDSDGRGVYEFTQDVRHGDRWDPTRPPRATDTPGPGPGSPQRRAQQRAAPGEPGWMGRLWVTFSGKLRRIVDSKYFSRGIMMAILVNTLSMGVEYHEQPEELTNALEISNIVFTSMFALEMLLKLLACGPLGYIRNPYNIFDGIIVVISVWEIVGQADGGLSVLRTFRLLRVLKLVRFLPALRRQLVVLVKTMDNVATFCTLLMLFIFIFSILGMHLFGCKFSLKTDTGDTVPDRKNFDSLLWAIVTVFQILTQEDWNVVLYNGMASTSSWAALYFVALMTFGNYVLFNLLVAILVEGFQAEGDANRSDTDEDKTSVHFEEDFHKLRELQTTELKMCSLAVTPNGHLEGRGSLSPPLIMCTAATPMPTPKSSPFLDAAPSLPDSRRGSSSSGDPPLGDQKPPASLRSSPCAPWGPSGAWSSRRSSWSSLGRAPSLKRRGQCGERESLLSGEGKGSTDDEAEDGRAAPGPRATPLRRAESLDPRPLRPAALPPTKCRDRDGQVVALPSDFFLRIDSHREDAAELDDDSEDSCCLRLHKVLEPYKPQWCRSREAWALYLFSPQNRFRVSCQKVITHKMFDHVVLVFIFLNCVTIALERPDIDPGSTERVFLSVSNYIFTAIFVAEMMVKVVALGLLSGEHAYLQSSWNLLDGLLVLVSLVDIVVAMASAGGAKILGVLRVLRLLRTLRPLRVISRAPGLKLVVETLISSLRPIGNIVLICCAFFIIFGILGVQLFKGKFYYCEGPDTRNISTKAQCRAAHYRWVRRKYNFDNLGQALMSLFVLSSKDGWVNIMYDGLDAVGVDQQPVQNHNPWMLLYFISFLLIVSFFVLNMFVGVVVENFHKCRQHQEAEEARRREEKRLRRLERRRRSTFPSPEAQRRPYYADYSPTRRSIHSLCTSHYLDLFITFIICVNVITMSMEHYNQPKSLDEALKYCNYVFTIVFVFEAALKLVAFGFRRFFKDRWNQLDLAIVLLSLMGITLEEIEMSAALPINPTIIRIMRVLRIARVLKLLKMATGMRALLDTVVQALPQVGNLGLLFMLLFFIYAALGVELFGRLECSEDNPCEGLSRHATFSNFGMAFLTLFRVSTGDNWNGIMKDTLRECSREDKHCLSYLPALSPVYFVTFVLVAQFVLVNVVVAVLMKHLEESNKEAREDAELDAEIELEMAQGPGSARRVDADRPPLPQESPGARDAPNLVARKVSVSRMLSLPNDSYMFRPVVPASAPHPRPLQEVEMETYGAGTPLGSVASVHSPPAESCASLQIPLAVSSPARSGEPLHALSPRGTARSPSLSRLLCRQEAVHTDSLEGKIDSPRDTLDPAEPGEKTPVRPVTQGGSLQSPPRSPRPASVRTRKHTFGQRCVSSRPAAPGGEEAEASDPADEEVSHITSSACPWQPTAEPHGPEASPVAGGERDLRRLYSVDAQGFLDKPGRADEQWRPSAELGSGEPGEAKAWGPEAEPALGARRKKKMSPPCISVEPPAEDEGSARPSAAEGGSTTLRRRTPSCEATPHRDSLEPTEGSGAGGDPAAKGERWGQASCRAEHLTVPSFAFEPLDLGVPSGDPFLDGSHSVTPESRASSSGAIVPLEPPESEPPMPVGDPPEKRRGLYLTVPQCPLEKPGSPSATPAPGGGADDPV
Eukaryotic translation initiation factor 4E, sequence (P63073 whole entry): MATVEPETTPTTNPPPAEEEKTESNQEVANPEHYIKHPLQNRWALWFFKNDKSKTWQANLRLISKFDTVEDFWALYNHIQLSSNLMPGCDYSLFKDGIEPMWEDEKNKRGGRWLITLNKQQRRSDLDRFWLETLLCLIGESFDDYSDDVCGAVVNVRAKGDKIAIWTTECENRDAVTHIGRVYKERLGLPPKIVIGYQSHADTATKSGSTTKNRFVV
T4 sequence (Q92731 whole entry): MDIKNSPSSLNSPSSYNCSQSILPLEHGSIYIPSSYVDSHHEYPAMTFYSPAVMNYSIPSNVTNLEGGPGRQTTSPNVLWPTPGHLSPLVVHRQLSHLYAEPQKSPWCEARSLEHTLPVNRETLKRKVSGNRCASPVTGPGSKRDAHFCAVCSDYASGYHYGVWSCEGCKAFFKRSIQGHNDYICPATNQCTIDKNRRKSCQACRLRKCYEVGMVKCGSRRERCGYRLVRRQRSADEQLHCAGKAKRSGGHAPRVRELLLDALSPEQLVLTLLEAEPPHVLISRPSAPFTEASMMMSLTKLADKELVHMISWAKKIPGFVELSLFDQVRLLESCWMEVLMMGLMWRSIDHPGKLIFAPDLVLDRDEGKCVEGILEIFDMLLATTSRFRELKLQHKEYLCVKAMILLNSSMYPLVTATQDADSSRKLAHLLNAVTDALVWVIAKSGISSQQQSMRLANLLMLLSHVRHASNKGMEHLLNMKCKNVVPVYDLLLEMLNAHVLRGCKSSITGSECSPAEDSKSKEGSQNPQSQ

O=C(NCc1cccs1)c1noc2c1CCCCC2
IC50 [1]: > 100 µM (inactive) | IC50 [2]: > 100 µM (not active)

Cc1cc(CNC(=O)COc2ccccc2)c2ccccc2n1
IC50 [1]: > 100 µM (inactive) | IC50 [2]: > 100 µM (not active)

COC(=O)c1sc(NC(=O)c2ccc(Cn3cc(Cl)cn3)o2)c(C#N)c1C
IC50 [3]: > 100 µM (active)

CSc1nnc(Cn2c(=O)sc3ccccc32)n1-c1cccc(Cl)c1
IC50 (cells [4]): 8.48 µM (active) | CC50 [5]: > 50 µM (active)

CCCC(c1nnnn1CC(=O)OCC)N(Cc1cc2c(C)cc(C)cc2nc1O)C1CCCC1 (configuration not stated)
IC50 (cells [4]): 6.29 µM (active)

Clc1ccc2sc(C3CCNCC3)nc2c1
EC50 [6]: 0.008 µM (active) | EC50 (H4): 0.168 µM (active) | EC50 [7]: 42.4 µM (active) | EC50 [8]: 0.141 µM (active)

O=C(CSCC(=O)N1CCN(c2ccccc2)CC1)Nc1nc(-c2ccc(Cl)s2)cs1
EC50 [9]: 4.28 µM (active)

C=CCN1C(=O)CSc2ccc(C(=O)NCc3ccco3)cc21
IC50 [3]: > 100 µM (active)

Cc1cccc(/C=C/c2onc(C)c2[N+](=O)[O-])n1
CC50 [10]: > 20 µM (active) | CC50 [11]: 7.76 µM (active) | CC50 [12]: 14.3 µM (active) | CC50 [13]: 6.87 µM (active) | CC50 (Vero [14]): 13.8 µM (active) | IC50 (cells [15]): 8.06 µM (active)

Cc1ccc(Nc2nc3ccccc3nc2-n2nc(C)cc2C)cc1
IC50 [16]: > 64 µM (inactive)

Cc1ccc(Nc2nc(=O)c3cccnc3s2)c(Br)c1
IC50 (cells [4]): 25 µM (active) | IC50 (Vero [17]): > 25 µM (active) | CC50 [5]: 22.8 µM (active)

COC(=O)CSc1nnc(-c2cccc(NC(=O)c3ccc(C)cc3)c2)n1C
IC50 [16]: > 64 µM (inactive)

COCCNC(C)C(=O)C12CC3CC(CC(C3)C1)C2 (configuration not stated)
IC50 [3]: > 100 µM (active)

Cc1cccc(OCCN2C(=O)c3ccccc3C2=O)c1
IC50 [18]: > 109 µM (inactive) | IC50 [19]: > 83.2 µM (inactive)

CC1Cc2ccccc2N1C(=O)c1cc2sccc2n1Cc1ccc(F)cc1 (configuration not stated)
EC50 [9]: 5.86 µM (active)

O=C(N/N=C/c1cc([N+](=O)[O-])cc(Br)c1O)C12CC3CCC(CC(C3)C1)C2
EC50 [6]: 2.99 µM (active) | EC50 (Streptococcus): 19.7 µM (active) | CC50 (Vero [14]): > 25 µM (active) | EC50 [20]: 4.67 µM (active) | EC50 (Streptokinase A): > 150 µM (not active)

Cc1nn(Cc2ccc(Cl)c(Cl)c2)c(C)c1NC(=O)c1cc(-c2ccco2)on1
EC50 [9]: 1.35 µM (active)

COc1cc(C(=O)NCc2ccc(C(=O)NCC(OC)OC)cc2)cc(OC)c1OC
IC50 [16]: 50 µM (inactive)

Nc1c(Cl)cc(Cl)cc1C(=O)OCC(=O)NC1CC1
IC50 (Estrogen receptor beta [21]): 26.5 µM (active) | IC50 (Estrogen receptor beta [22]): < 0.023 µM (not active)

CC1CCCC(C)N1CC(=O)Nc1sc2c(c1C#N)CCCC2 (configuration not stated)
IC50 (Estrogen receptor beta [22]): 0.0372 µM (not active)

O=C(Cn1cnc2c(oc3ccccc32)c1=O)N1CCCC1
IC50 [18]: > 109 µM (inactive) | IC50 [19]: > 83.4 µM (inactive)

N#Cc1ccc(OCC(=O)NNC(=S)NC(=O)C2CC2)cc1
IC50 (Bcl-2-related protein A1): > 20 µM (inactive) | IC50 [23]: 6.5 µM (active)

O=S(=O)(c1cccc(-c2csc(-c3ccccc3)n2)c1)N1CCOCC1
IC50 (cells [4]): 28.4 µM (active) | CC50 [5]: 37.8 µM (active)

Cc1cc(C)nc(N2CCCC(C(=O)Nc3cc(F)ccc3C)C2)n1 (configuration not stated)
IC50 [1]: > 100 µM (inactive) | IC50 [2]: > 100 µM (not active)
